Test results from patent publication US8124655B2, “Use of LR-90 and LR-102 to overcome insulin resistance” (City of Hope, priority 2007, dated 2012).

Tests used:
[1] = system: 3T3 adipocytes; assay: FFA uptake and glucose uptake in 3T3 adipocytes; type: cell-based; conditions: FIG. 14
Excerpt: FIG. 14. Effect of LR-90 on 3T3 adipocytes. Tissue culture data on 3T3 adipocytes, showing free fatty acid (FFA) uptake and glucose uptake improvements upon contact with LR-90.
The present Example, with reference to FIG. 14, provides tissue culture data on 3T3 adipocytes, showing free fatty acid (FFA) uptake and glucose uptake improvements upon contact with LR-90.

[2] = system: experimental type 1 diabetic nephropathy; conditions: previous studies (24); cited from earlier work
[3] = system: Zucker diabetic fatty rats (ZDF, fa/fa); assay: Kidney histology, gene and protein expression and lipid peroxidation (Example 2); type: in vivo, rat
Procedure: FIG. 9. Representative photomicrographs of immunohistochemicals stainings of kidney tissues. A. Periodic Acid-Metheamine Silver (PAMS); B, Masson'S Trichrome; C, AGE; and D, RAGE stainings of kidneys from lean, ZDF and LR-90 treated ZDF rats.
FIG. 10. mRNA expression of TGF-B1, CTGF, fibronectin and RAGE in the kidney cortex. Renal cortices from each treatment group were analyzed by for TGF-B1, CTGF, fibronectin and RAGE gene expression by RT-PCR. A. Representative gel profiles; B, Quantitative results of band densities. 18s/18 sII were used as internal controls.
FIG. 11. Protein expression of TGF-B1 and CTGF in the kidney cortex. Renal cortices from each treatment group were analyzed by for TGF-B1 and CTGF protein expression by Western blotting and immunostaining with specific antibodies. Representative gel profiles and densiitometric quantitation of protein bands. *P<0.01 vs. lean, **P<0.01 vs. ZDF
FIG. 12. Representative immunohistochemical staining for TGF-B1 and CTGF in the kidney cortex. Renal cortices from each treatment group were probed with specific antibodies against TGF-β1 and CTGF.
FIG. 13. Effect of LR-90 on kidney lipid peroxidaton. A. Kidney lipid peroxides were analyzed by measuring malondialdehyde (MDA) in tissue homogenates using the TBARS method. B. Correlation of lipid peroxidation with urinary albumin excretion rates. *P<0.05 vs. ZDF, **P<0.01 vs. ZDF.
The present Example presents the results of an investigation of the effects of LR-90, an inhibitor of AGE/ALE formation, in male Zucker diabetic fatty rats (ZDF, fa/fa) fed with Purina 5008 diet until 40 weeks of age, and their hetorozygous lean littermates (ZDF fa/+) as non-hyperglycemic controls. LR-90 at 50 mg/L of drinking water was given to a subgroup of ZDF rats after the rats developed spontaneous diabetes at 13 weeks of age. At 40 weeks of age, and before killing the animals, their weight was measured; HbA1c, plasma glucose, insulin, triglycerides, cholesterol, CRP and urinary albumin and creatinine concentrations were measured. After euthanizing all animals, organs such as the kidneys, eyeballs, liver, heart, aortae and pancreas were dissected and subjected to immunohistochemical staining, RT-PCR, Western blotting and microscopy.

[4] = system: CML-AGE, AGER; assay: Plasma and renal AGE and AGER; type: in vivo, rat; conditions: ZDF rats
Procedure: All animal studies were carried out in compliance with policies outlined in The Guide for the Care and Handling of Laboratory Animals (NIH Publication No. 85-23) that have been approved by the City of Hope Animal Care Committee. Male ZDF (fa/fa) and male Zucker lean (+/+; ZL) rats were obtained at the age of 5 weeks from Charles River Laboratories (Wilmington, Mass., USA). Animals were maintained with free access to Purina 5008 rat chow (Purina Mills, St Louis, Mo., USA) and tap water. All animals were individually housed in a controlled room with a 12 h dark-light cycle. At the age of 13 weeks, the animals were divided into the following groups: (1) ZL rats (n=6); (2) ZDF rats without treatment (n=6); and (3) ZDF rats treated with LR-90 at 50 mg/l in their drinking water (ZDF90, n=6). The dose of LR-90 was chosen after previous experiments with type 1 diabetic nephropathy. Food, water intake, body weight and blood glucose levels were monitored periodically. Systolic blood pressure was measured by tail-cuff plethysmography (CODA2 Blood Pressure System; Kent Scientific, Torrington, Conn., USA). […] Plasma glucose, lipids and Nε-(carboxymethyl)lysine-AGE Plasma glucose was measured using a glucose analyzer (2300 STAT; YSI, Yellowsprings, Ohio, USA). Total plasma triacylglycerol and cholesterol concentrations were quantified using the Vitros 250 Chemistry System (Johnson & Johnson, Rochester, N.Y., USA). Nε-(Carboxymethyl)lysine (CML)-AGE was liberated from plasma proteins by acid hydrolysis and then measured by ion-pair reversed-phase liquid chromatography/tandem mass spectrometry as described previously. […]
Renal cortical tissues were homogenised in PBS buffer with 1% (vol./vol.) Nonidet P-40, 0.5% (wt/vol.) sodium deoxycholate, 0.1% (wt/vol.) SDS and protease inhibitor mixture (Roche, Indianapolis, Ind., USA). […] Protein concentrations were measured using the Bio-Rad DC Assay kit. […] Immunoreactive proteins were detected by enhanced chemiluminescence (Western Lightning Chemiluminescence Reagent; Perkin-Elmer, Waltham, Mass., USA) using horseradish peroxidase-labelled secondary antibodies. […]

CC(C)(Oc1ccc(NC(=O)Nc2ccc(Cc3ccc(NC(=O)Nc4ccc(OC(C)(C)C(=O)O)cc4)c(Cl)c3)cc2Cl)cc1)C(=O)O [LR-90, methylene bis[4,4′-(2-chlorophenylureidophenoxyisobutyric acid)]]
free fatty acid (FFA) uptake [1]: improvements
glucose uptake [1]: improvements
development of experimental type 1 diabetic nephropathy [2]: prevented
reduction of kidney lipid peroxidation ([3]; ZDF animals, MDA by TBARS, Example 2): ~40%
glomerulosclerosis, tubular degeneration and collagen deposition ([3]; kidney of ZDF rats, FIGS. 9a and b): prevented
renal AGE and RAGE accumulation ([3]; kidney of ZDF rats, FIGS. 9c and d): reduced
TGF-β1 and CTGF gene and protein expression, fibronectin and RAGE mRNA ([3]; kidneys of ZDF rats, FIGS. 10, 11 and 12): significantly attenuated
Ager mRNA and protein in kidney tissues ([4]; RT-PCR and immunostaining): markedly abrogated
AGE accumulation in kidney tissues ([4]; immunohistochemistry): markedly abrogated
attenuation of circulating plasma CML-AGE concentration ([4]; p<0.01, LC/tandem MS): 22%
